According to US20100160228A1, “METHOD FOR INHIBITING OR STIMULATING ANGIOGENESIS IN AN INDIVIDUAL” (VALTION TEKNILLINEN TUTKIMUSKESKUS, priority 2007, published 2010):

How the values were obtained:
Assay type in all cases: cell-based, human
[1] = test system: HUVEC; experiment: Transwell chemotaxis assay towards VEGF; settings: vector-transfected HUVEC, FIG. 3D
Description: FIG. 3. TCPTP activity controls VEGF-dependent responses in endothelial cells. (A) HUVEC were transfected with the constitutively active TCPTP (TC37) or vector control (pCG), stimulated or not with VEGF, and stained for VEGFR2 (red) and nuclei (blue) after fixation and permeabilization. Arrows indicate VEGFR2 vesicles. (B) HUVEC were treated as in (A) and subjected to trypsin digestion on ice. VEGFR2 protected from trypsin (=internalized pool) was detected by immunoblotting. The intensities of VEGFR2 bands were quantified and are expressed relative to pCG-VEGF control. A representative experiment out of 2 with similar results is shown. (C) HUVEC were transfected with no oligo, siRNA against TCPTP or a control siRNA, and TCPTP expression was measured using immunoblotting. Cells were treated with 80 ng/ml VEGF and proliferation of sparse cells plated on gelatin was assayed after 16 h using BrdU-based assay (mean±SD; n=4-6; *, p<0.05). (D) HUVEC were transfected as in (A) and chemotaxis towards VEGF was measured using a Transwell assay for 4 hours. Cells adhering to the bottom of the filter were fixed and stained with crystal violet. Number of migrated cells was counted (mean±SEM, n=3).
(§1) FIG. 5. Controlled TCPTP activation inhibits VEGF-driven capillary formation, chemokinesis and chemotaxis. (A) HUVEC were cultured in fibrin gels and treated with or without VEGF and TAT peptides (200 nM). After 24 h the formation of capillary tubes was semiquantitatively scored. (B) HUVEC were plated on gelatin in the presence of the peptides (200 nM) or left untreated for 1 h. The cells were stimulated as indicated and migration of individual cells was tracked using time-lapse microscopy. Cumulative migration distance was plotted for randomly picked individual cells. (C) HUVEC were treated with 200 nM peptides and the transmigration assay was performed as in FIG. 3D. (D) HUVEC were transfected with siRNA against TCPTP or a control siRNA, and TCPTP expression was analysed with immunofluorescence. Equal exposures of TCPTP (green) and DAPI (blue) stainings are shown. 48 h post-transfection cells were subjected to transmigration assay as in […].
Chemotaxis assays. HUVEC electroporated with the DNA or siRNA or non-transfected HUVEC were treated with 200 nM α1TAT, ScrTAT or left untreated for 1 h. Transwell filters (8 μm pore size, Costar, Cambridge, Mass.) were coated with gelatin and medium (RPMI, 4 mM L-glutamine, 10% FBS) and VEGF (100 ng/ml) were added to the lower chamber. Cells were harvested from the culture plates, and transferred into the Transwell inserts (4×10^5 cells/well) in RPMI with 0.2% soybean trypsin inhibitor. […] The inserts were fixed in 4% paraformaldehyde, cells stained with 0.5% crystal violet and the number of migrated cells was counted using a microscope.

[2] = test system: HUVEC; experiment: Time-lapse chemokinesis assay; settings: HUVEC on gelatin, 4 hours time-lapse, FIG. 5B and FIG. 9
Description: as §1
FIG. 9. TCPTP activation by α1-peptide inhibits VEGF induced chemokinesis. HUVEC were plated on gelatin in the presence of the peptides (200 nM) or left untreated for 1 h. The cells were stimulated as indicated and migration of individual cells was tracked using time-lapse microscopy. Representative images of individual cells overlayed with their migration patterns (different colours) at the indicated time points are shown.
Time-lapse chemokinesis assays. HUVEC were plated on gelatin-coated wells and allowed to attach for 1 h in the presence or absence of 200 nM α1TAT or ScrTAT and 20 ng/ml VEGF. Migration of individual cells was recorded at 5 min intervals for 4 h using 20× objective and digital video recording. The migration pathway of at least ten randomly picked cells was tracked using the Metamorph program. The cumulative migration distances were also plotted.

[3] = test system: VEGFR2; experiment: VEGFR2 kinase activity from HUVEC lysates (Kinase-Glo Plus); settings: HUVEC treated with no peptide or with scrambled control TAT peptide, FIG. 4B
Description: (A) Serum-starved subconfluent HUVEC were treated for 1 h with α1 integrin cytoplasmic tail fusion peptide (α1TAT) or TAT-scramble control fusion peptide (ScrTAT) (both at 200 nM) followed by VEGF-induction (100 ng/ml, 15 min) where indicated. Cell lysates were resolved on SDS-PAGE and immunoblotted for phosphorylated VEGFR2 (or tubulin as a control). (B) HUVEC were treated as in (A) and VEGFR2 kinase activity (mean±SD, n=3) was measured from the cell lysates. **, p<0.01. (C) Recombinant, purified TCPTP was incubated with α1 or α2 cytoplasmic tail peptides (L-amino acids) or with α1 and scrambled TAT peptides (D-amino acids) and analyzed for phosphatase activity (mean±SD, n=3).
VEGFR2 kinase activity was studied using Kinase-Glo Plus kinase assay kit according to manufacturer's protocol (Promega) with 25 µM ATP. Briefly, HUVEC plated on gelatin were serum-starved overnight, treated with 400 nM α1TAT or ScrTAT or left untreated and stimulated with 100 ng/ml VEGF for 15 min, when indicated. The cells were lysed to ice-cold lysis buffer (1% NP-40, 20 mM Hepes pH 7.4, 150 mM NaCl, 10% glycerol, 2.5 mM EDTA, complete protease inhibitor (Roche) and phosphatase inhibitor coctails I and II (Sigma)). The lysates were incubated in anti-VEGFR2 or control IgG-coated wells with shaking for 2 h and washed 3 times with lysis buffer and 3 times with cold kinase assay buffer (20 mM Hepes pH 8, 0.1 mM Na3VO4, 10 mM MnCl2, 1 mM DTT). Kinase assay was performed for 10 min at +37° C.

VEGF
stimulation of chemotaxis [1]: > 2 fold | induction of HUVEC chemokinesis [2]: 99±25% | increase of VEGFR2 kinase activity upon VEGF-stimulation [3]: about 10 fold
